Values of other authors in patent EP4052553A1, “AGRICHEMICAL COMPOSITION FOR TREATING SEEDS AND USE THEREOF” (priority 2019, dated 2021).

Conditions: distilled water at 20°C

| SMILES | aqueous solubility [ppm] |
| --- | --- |
| COCc1cccc(C(O)c2nc(OC)cc(OC)n2)c1NS(=O)(=O)C(F)F (stereo not drawn) [pyrimisulfan] | 87 |
| COc1cc(OC)nc(Sc2cccc3c2C(=O)OC3C)n1 (stereo not drawn) [pyriftalid] | 1.8 |
| COc1nc(OC)nc(C(=O)c2cccc(F)c2N(C)S(=O)(=O)C(F)F)n1 [triafamone] | 41 |
| COc1cc(OC)nc(NC(=O)NS(=O)(=O)Nc2ccccc2C(=O)C2CC2)n1 [cyclosulfamuron] | 0.34 |
| Cc1ccc(C(=O)COc2c(C(=O)c3ccc(Cl)c(C)c3Cl)c(C)nn2C)cc1 [benzofenap] | 0.12 |
| CC(C)=C1OC(=O)N(c2cc(OC3CCCC3)c(Cl)cc2F)C1=O [pentoxazone] | 0.22 |
| CS(=O)(=O)c1ccc(C(=O)C2=C(Sc3ccccc3)C3CCC(C3)C2=O)c(Cl)c1 (stereo not drawn) [benzobicyclon] | 0.052 |
| CO/N=C(/C)c1cccc(Oc2nc(OC)cc(OC)n2)c1C(=O)OC [pyriminobac-methyl] | 9.3 |
| CCOC(=O)c1ccccc1S(=O)(=O)NC(=O)Nc1nc(Cl)cc(OC)n1 [chlorimuron-ethyl] | 8.6 |
| CCC(CC)Nc1c([N+](=O)[O-])cc(C)c(C)c1[N+](=O)[O-] [Pendimethalin] | 0.26 |
| C[C@@H](Oc1ccc(Oc2nc3ccc(Cl)cc3o2)cc1)C(=O)N(C)c1ccccc1F [metamifop] | 0.69 |
| COC(=O)c1c(Cl)nn(C)c1S(=O)(=O)NC(=O)Nc1nc(OC)cc(OC)n1 [halosulfuron-methyl] | 10.2 |
| CCOC(=O)c1cnn(C)c1S(=O)(=O)NC(=O)Nc1nc(OC)cc(OC)n1 [pyrazosulfuron-ethyl] | 9.8 |
| COc1cc(OC)nc(Oc2cccc(Oc3nc(OC)cc(OC)n3)c2C(=O)ON=C(c2ccccc2)c2ccccc2)n1 [pyribenzoxim] | 3.5 |
| CCCc1ccc2nc(Cl)c(S(=O)(=O)NC(=O)Nc3nc(OC)cc(OC)n3)n2n1 [propyrisulfuron] | 0.98 |
| COc1ccc(-n2c(=O)c(C(=O)C3C(=O)CCCC3=O)nc3c(Cl)cccc32)cc1 [fenquinotrione] | 17 |
| C#CCN(C)c1c(C#N)cnn1-c1nn2c(c1Cl)CCCC2 [pyraclonil] | 50.1 |
| CCCOCCN(C(=O)CCl)c1c(CC)cccc1CC [pretilachlor] | 74 |
